# What was measured:
# [1] = In vivo inhibition of ERK phosphorylation in human MIA PaCa-2 cells harbouring KRAS G12C mutant xenografted in athymic nude Foxn1 nu mouse assessed as phosphorylated ERK level at 10 mg/kg, po qd measured after 4 hrs relative to total ERK; assay type: functional
# [2] = Inhibition of human recombinant SOS2 catalytic domain/human recombinant GST-KRAS G12C mutant expressed in Escherichia coli assessed as inhibition of interaction
# [3] = Inhibition of N-terminal his-tagged human recombinant SOS2/C-terminal Avi-biotinylated-tagged human recombinant KRAS expressed in Escherichia coli assessed as inhibition of GDP exchange rate by TR-FRET assay
# [4] = Free plasma concentration in CD-1 mouse at 100 mg/kg, po measured on 1 hr; assay type: ADME, organism-based; conditions: in vivo
# [5] = In vivo inhibition of ERK phosphorylation in human MIA PaCa-2 cells harbouring KRAS G12C mutant xenografted in athymic nude Foxn1 nu mouse assessed as phosphorylated ERK level at 10 mg/kg, po qd in presence of 25 mg/kg MRTX849 measured after 4 hrs relative to total ERK; assay type: functional
# [6] = In vivo inhibition of ERK phosphorylation in human MIA PaCa-2 cells harbouring KRAS G12C mutant xenografted in athymic nude Foxn1 nu mouse assessed as phosphorylated ERK level at 10 mg/kg, po qd in presence of 50 mg/kg MRTX849 measured after 4 hrs relative to total ERK; assay type: functional
smiles,measurement,setting,value
C=C(F)C(=O)N1CCN(c2nc(OC[C@@H]3CCCN3C)nc3c2CCN(c2cccc4cccc(Cl)c24)C3)C[C@@H]1CC#N [ADAGRASIB],inhibition in vivo at 10 mg/kg,[1],21%
CNCc1ccccc1-c1csc([C@@H](C)Nc2nc(C)nc3cc(OC)c(OC)cc23)c1 [BAY-293],IC50,[2],21 nM
Cc1c(C#N)cccc1[C@@H](C)Nc1nnc(C)c2cnc(N3CCOCC3)cc12 [MRTX-0902],IC50,[3],> 10000 nM
same,Cp(f),[4],134 nM
same,inhibition in vivo at 10 mg/kg,[5],66%
same,inhibition in vivo at 10 mg/kg,[6],81%

# From ChEMBL document CHEMBL5143739, “Design and Discovery of MRTX0902, a Potent, Selective, Brain-Penetrant, and Orally Bioavailable Inhibitor of the SOS1:KRAS Protein-Protein Interaction” (J Med Chem, 2022)
